Test system: K86415-001-R-J1-PDC complex spheroids, viability
Assay: Anticancer human tumor K86415-001-R-J1-PDC patient-derived lung adenocarcinoma cell line growth inhibition [RAS]
Details: for IC50: curve of first compound; for viability, T/C: stronger effect = lower value
Outline: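 Multi-cell-type spheroids: tumor cells plus HUVEC endothelial cells and mesenchymal stem cells. RAS-pathway inhibitors were combined with targeted agents, each dosed in half-log steps down from clinical Cmax, or from 10 microM when Cmax was unknown.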
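Note: spheroids exposed to agents for seven days before readout.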

Work on `CCc1c2c(nc3ccc(O)cc13)-c1cc3c(c(=O)n1C2)COC(=O)[C@]3(O)CC` + CCn1c(-c2cc(N3CCN(C)CC3)cnc2C(C)OC)c2c3cc(ccc31)-c1csc(n1)CC(NC(=O)C1CC1C)C(=O)N1CCCC(N1)C(=O)OCC(C)(C)C2 yielded an IC50 (second compound 0.000949 µM) of under 0.949 nM, an IC50 (second compound 0.003 µM) of under 0.949 nM and an IC50 (second compound 0.00949 µM) of under 0.949 nM. For the same molecule, the IC50 (second compound 0.03 µM) was under 0.949 nM, the IC50 (second compound 0.0949 µM) was under 0.949 nM and the IC50 (second compound 0.3 µM) was under 0.949 nM. The viability, T/C (second compound 0.000949 µM, first compound 0.000949 µM) was 43.2%, the viability, T/C (second compound 0.000949 µM, first compound 0.003 µM) was 23.9% and the viability, T/C (second compound 0.000949 µM, first compound 0.00949 µM) was 12.9%. For the same molecule, the viability, T/C (second compound 0.000949 µM, first compound 0.03 µM) was 16.1%, the viability, T/C (second compound 0.000949 µM, first compound 0.0949 µM) was 11.6% and the viability, T/C (second compound 0.000949 µM, first compound 0.3 µM) was 4.09%. It also gave a viability, T/C (second compound 0.003 µM, first compound 0.000949 µM) of 22%, a viability, T/C (second compound 0.003 µM, first compound 0.003 µM) of 13.5% and a viability, T/C (second compound 0.003 µM, first compound 0.00949 µM) of 12.4%. The viability, T/C (second compound 0.003 µM, first compound 0.03 µM) was 13.3%, the viability, T/C (second compound 0.003 µM, first compound 0.0949 µM) was 10.2% and the viability, T/C (second compound 0.003 µM, first compound 0.3 µM) was 3.14%. It also gave a viability, T/C (second compound 0.00949 µM, first compound 0.000949 µM) of 9.02%, a viability, T/C (second compound 0.00949 µM, first compound 0.003 µM) of 7.98% and a viability, T/C (second compound 0.00949 µM, first compound 0.00949 µM) of 8.68%. It also gave a viability, T/C (second compound 0.00949 µM, first compound 0.03 µM) of 8.25%, a viability, T/C (second compound 0.00949 µM, first compound 0.0949 µM) of 5.09% and a viability, T/C (second compound 0.00949 µM, first compound 0.3 µM) of 2.46%. The viability, T/C (second compound 0.03 µM, first compound 0.000949 µM) was 5.24%, the viability, T/C (second compound 0.03 µM, first compound 0.003 µM) was 5.47% and the viability, T/C (second compound 0.03 µM, first compound 0.00949 µM) was 3.66%. It also gave a viability, T/C (second compound 0.03 µM, first compound 0.03 µM) of 3.44%, a viability, T/C (second compound 0.03 µM, first compound 0.0949 µM) of 2.88% and a viability, T/C (second compound 0.03 µM, first compound 0.3 µM) of 1.87%. The viability, T/C (second compound 0.0949 µM, first compound 0.000949 µM) was 3.46%, the viability, T/C (second compound 0.0949 µM, first compound 0.003 µM) was 3.37% and the viability, T/C (second compound 0.0949 µM, first compound 0.00949 µM) was 2.84%. The viability, T/C (second compound 0.0949 µM, first compound 0.03 µM) was 2.41%, the viability, T/C (second compound 0.0949 µM, first compound 0.0949 µM) was 1.76% and the viability, T/C (second compound 0.0949 µM, first compound 0.3 µM) was 0.94%. It also gave a viability, T/C (second compound 0.3 µM, first compound 0.000949 µM) of 2.47%, a viability, T/C (second compound 0.3 µM, first compound 0.003 µM) of 2.36% and a viability, T/C (second compound 0.3 µM, first compound 0.00949 µM) of 2.47%. The viability, T/C (second compound 0.3 µM, first compound 0.03 µM) was 2.01%, the viability, T/C (second compound 0.3 µM, first compound 0.0949 µM) was 2.07% and the viability, T/C (second compound 0.3 µM, first compound 0.3 µM) was 0.89%.
Work on `C=CC(=O)Nc1cc(Nc2nccc(-c3cn(C)c4ccccc34)n2)c(OC)cc1N(C)CCN(C)C` + CCn1c(-c2cccnc2C(C)OC)c2c3cc(ccc31)N1CCOC(CC(NC(=O)C(C(C)C)N(C)C(=O)C3(F)CCN(C(=O)C#CC(C)(C)N(C)C)CC3)C(=O)N3CCCC(N3)C(=O)OCC(C)(C)C2)C1 yielded an IC50 (second compound 0.000949 µM) of under 3.16 nM, an IC50 (second compound 0.003 µM) of under 3.16 nM and an IC50 (second compound 0.00949 µM) of under 3.16 nM. It also gave an IC50 (second compound 0.03 µM) of under 3.16 nM, an IC50 (second compound 0.0949 µM) of under 3.16 nM and an IC50 (second compound 0.3 µM) of under 3.16 nM. For the same molecule, the viability, T/C (second compound 0.000949 µM, first compound 0.00316 µM) was 34.5%, the viability, T/C (second compound 0.000949 µM, first compound 0.01 µM) was 31.8% and the viability, T/C (second compound 0.000949 µM, first compound 0.0316 µM) was 17%. It also gave a viability, T/C (second compound 0.000949 µM, first compound 0.1 µM) of 25.6%, a viability, T/C (second compound 0.000949 µM, first compound 0.316 µM) of 18.3% and a viability, T/C (second compound 0.000949 µM, first compound 1 µM) of 9.09%. For the same molecule, the viability, T/C (second compound 0.003 µM, first compound 0.00316 µM) was 14.9%, the viability, T/C (second compound 0.003 µM, first compound 0.01 µM) was 11.9% and the viability, T/C (second compound 0.003 µM, first compound 0.0316 µM) was 10.1%. The viability, T/C (second compound 0.003 µM, first compound 0.1 µM) was 8.82%, the viability, T/C (second compound 0.003 µM, first compound 0.316 µM) was 6.15% and the viability, T/C (second compound 0.003 µM, first compound 1 µM) was 5.63%. The viability, T/C (second compound 0.00949 µM, first compound 0.00316 µM) was 11.9%, the viability, T/C (second compound 0.00949 µM, first compound 0.01 µM) was 11.1% and the viability, T/C (second compound 0.00949 µM, first compound 0.0316 µM) was 11.4%. For the same molecule, the viability, T/C (second compound 0.00949 µM, first compound 0.1 µM) was 7.32%, the viability, T/C (second compound 0.00949 µM, first compound 0.316 µM) was 5.35% and the viability, T/C (second compound 0.00949 µM, first compound 1 µM) was 5.16%. The viability, T/C (second compound 0.03 µM, first compound 0.00316 µM) was 10.2%, the viability, T/C (second compound 0.03 µM, first compound 0.01 µM) was 11.1% and the viability, T/C (second compound 0.03 µM, first compound 0.0316 µM) was 9.36%. The viability, T/C (second compound 0.03 µM, first compound 0.1 µM) was 8.38%, the viability, T/C (second compound 0.03 µM, first compound 0.316 µM) was 5.05% and the viability, T/C (second compound 0.03 µM, first compound 1 µM) was 4.02%. The viability, T/C (second compound 0.0949 µM, first compound 0.00316 µM) was 12.5%, the viability, T/C (second compound 0.0949 µM, first compound 0.01 µM) was 11.2% and the viability, T/C (second compound 0.0949 µM, first compound 0.0316 µM) was 10.2%. It also gave a viability, T/C (second compound 0.0949 µM, first compound 0.1 µM) of 8.51%, a viability, T/C (second compound 0.0949 µM, first compound 0.316 µM) of 5.53% and a viability, T/C (second compound 0.0949 µM, first compound 1 µM) of 5.3%. The viability, T/C (second compound 0.3 µM, first compound 0.00316 µM) was 13.1%, the viability, T/C (second compound 0.3 µM, first compound 0.01 µM) was 11.4% and the viability, T/C (second compound 0.3 µM, first compound 0.0316 µM) was 11.9%. For the same molecule, the viability, T/C (second compound 0.3 µM, first compound 0.1 µM) was 5.28%, the viability, T/C (second compound 0.3 µM, first compound 0.316 µM) was 5.37% and the viability, T/C (second compound 0.3 µM, first compound 1 µM) was 4.83%.

Reference: PubChem BioAssay AID2060893 (Molecular Pharmacology Branch, DTP, NCI, 2025)
